According to PMC10521662 (Biodesign Research, 2022):

Target: T1, β-PGM (β-phosphoglucomutase) (Pyrococcus horikoshii, UniProt O58510)
T1 construct: gene PH0749; recombinant, plasmid pET20b-βpgm, E. coli BL21(DE3), purified
T1 sequence (O58510 1-230): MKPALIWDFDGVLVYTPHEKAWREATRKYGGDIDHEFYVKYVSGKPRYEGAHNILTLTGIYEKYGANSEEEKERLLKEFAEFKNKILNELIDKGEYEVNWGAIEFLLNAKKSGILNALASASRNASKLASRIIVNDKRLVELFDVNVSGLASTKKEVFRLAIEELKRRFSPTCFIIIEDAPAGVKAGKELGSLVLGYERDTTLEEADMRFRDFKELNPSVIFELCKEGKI
Assay: G6P formation, G6PDH NADH assay at […] nm
Type: biochemical
Details: 10 mM β-G1P; 10 mM MgCl2; pH 7.0; 37 °C

SMILES: O=P(O)(O)O[C@@H]1O[C@H](CO)[C@@H](O)[C@H](O)[C@H]1O [β-G1P]
- G6P formation, G6PDH NADH assay at 340 nm: β-PGM was able to utilize β-G1P but showed no activity for α-G1P
